Test [1] concerns MDA-MB-231-MENA^INV cells. The test is described as follows: Boyden Chamber cell migration and chemotaxis assay. The test is classed as cell-based, human. Conditions: 18 hours. As for the experimental part:
MENA kinase inhibitors reverse MENA-dependent cell migration and chemotaxis in the Boyden Chamber Assay. […] The fibronectin coated upper chamber were then transferred to wells containing basal media (negative controls) and wells containing basal media, EGF, and MENA kinase inhibitors at the concentrations indicated in FIG. 11. All treatment conditions except the basal negative control used EGF as the chemoattractant. After 18 hours, cells that migrated through the pores toward the chemotattractant were evaluated by quantitative immunostaining using imageJ software as described above. Data were analyzed using anova (n=2) and reported relative to the EGF stimulated cells absent any inhibitor positive control (0) as mean with error of the mean in FIG. 11.

The test system of test [2] is MDA-MB-231-MENA^INV cells. Put plainly: Matrigel invasion chamber assay (cell invasion and chemotaxis towards EGF). Conditions: 18 hours. In kind it is cell-based, human. Here is the method: Addition of MENA kinase inhibitors to cells grown in fully supplemented medium reduce the capability of the breast cancer cell line to migrate in the wound healing assay (panels (c)-(h)). Panel (a) represents the wound size at the start of treatment. Cells that were cultured overnight in fully supplemented medium without drug (panel (b)) were able to close 50% of the wound. […] The ability of the various MENA kinase inhibitors described above to inhibit […] tumor cell invasion was tested using the BioCoatTM Matrigel® invasion chamber assay (Corning, Tewksbury, Mass.). […] Inserts were transferred to wells containing basal media (negative control) and the chemoattractant EGF with or without each of the MENA kinase inhibitors. After 18 hours cells that invaded the lower cell surface of the membrane were fixed, stained and evaluated by quantitative immunostaining using imageJ software.

For the next test, the system named is MVD7-MENA^INV cells. The test is described as follows: Fibronectin fibrillogenesis assay. Conditions: for MENA-dependent fibronectin fibrillogenesis phenotype compared to the MENA-null control: FIG. 8. In kind it is cell-based, mouse. As for the experimental part:
MENA kinase inhibitors reversed MENA-dependent fibrillogenesis. The ability of the various MENA kinase inhibitors described above to reverse MENA-dependent fibrillogenesis was evaluated in fibronectin fibrillogenesis assays using the […] cell line. Cells were pretreated with MENA kinase inhibitor for 1 hour at the concentrations indicated in FIG. 8 and cultured in medium containing fibronectin-depleted serum supplemented with labeled fibronectin. After 4 hours, fibronectin fibril formation was evaluated by quantitative immunostaining using imageJ software to measure abundance and distribution of fibrillar fibronectin (anova, n=3). The results are plotted relative to control MVD7-GFP cells in FIG. 8.

Test [3] has as its system MDA-MB-231-MENA^INV cells. The test is described as follows: Wound healing cell migration assay. The test is classed as cell-based, human. Conditions: 18 hours, fully supplemented medium, without drug 50%. Here is the method:
MENA kinase inhibitors block MENA-dependent cell migration in a wound-healing assay. The ability of the various MENA kinase inhibitors described above to block MENA-dependent cell migration of MDA-MB-231-MENA^INV cells was assayed using the CySelect™ wound healing assay kit (Cell Biolabs, Inc., San Diego, Calif.). Following the manufacturer's protocol, cells were cultured in fibronectin coated wells until a monolayer formed around the wound insert. The insert was then removed and cells were cultured in the presence of inhibitor at the indicated concentrations in FIG. 9 in fully supplemented medium. After 18 hours the cells were fixed, stained, and evaluated for their capacity to close the wound generated by the insert by fluorescence microscopy.

Test [4] concerns MENA kinase-dependent phosphorylation of MENA^INV at Ser144. Put plainly: Quantitative immunoblot of pSer125/pSer144 MENA/MENA^INV in TNF-alpha stimulated MVD7-MENA^INV cells. In kind it is cell-based, mouse. The conditions noted are these: FIG. 2. As for the experimental part: Anti-phospho-MENA antibodies specific for the Ser125/Ser144 phosphorylation site in MENA/MENA^INV were produced in animals injected with peptide containing mouse MENA residues 117-133 phosphorylated at Ser125 and conjugated to KLH (Covance Research Products, Denver, Pa.). Purification of pSer125MENA antibody was performed according to the protocol of Archuleta, et al. (Archuleta, Stutzke, Nixon, & Browning, Optimized protocol to make phospho-specific antibodies that work. Methods Mol. Biol. 717:69-88, 2011). Peptides used for purification (phosphorylated peptide: Ac-CKKGPTLPRQN(pS)QLPAQVQN (SEQ ID NO: 32) and dephosphorylated: […] (SEQ ID NO:32)) were prepared by Covance Research Products (BioLegend, San Diego, Calif.) and ThermoScientific, Grand Island, N.Y., respectively. Peptides were coupled to SulfoLink Coupling Resin Column (ThermoScientific) according to manufacturer's instructions. Sera were sequentially passed over column containing dephosphorylated peptide, and then over the column containing phosphorylated peptide. Antibodies bound to second column were eluted using IgG Elution buffer (ThermoScientific).
Phosphorylation of MENA and or MENA isoforms is inhibited by MENA kinase inhibitors from the Ras-Raf-MEK-MAPK/ERK and PI3K-AKT/mTOR pathways. […] Phosphorylation was measured by quantitative immunoblot assays using MENA antibodies specific for the phosphorylation of MENA/MENA^INV at Ser125/Ser144 Cells were stimulated and the MENA kinase was activated through treatment with 10 ng/ml TNF-alpha. […]
On the technique in general: In western blotting, separated proteins are transferred to a membrane and probed.

The target of the next test is MAPKAPK2/MK2 (Homo sapiens, UniProt P49137). Conditions: cited from earlier work.
Sequence of MAPKAPK2/MK2 (P49137 whole entry): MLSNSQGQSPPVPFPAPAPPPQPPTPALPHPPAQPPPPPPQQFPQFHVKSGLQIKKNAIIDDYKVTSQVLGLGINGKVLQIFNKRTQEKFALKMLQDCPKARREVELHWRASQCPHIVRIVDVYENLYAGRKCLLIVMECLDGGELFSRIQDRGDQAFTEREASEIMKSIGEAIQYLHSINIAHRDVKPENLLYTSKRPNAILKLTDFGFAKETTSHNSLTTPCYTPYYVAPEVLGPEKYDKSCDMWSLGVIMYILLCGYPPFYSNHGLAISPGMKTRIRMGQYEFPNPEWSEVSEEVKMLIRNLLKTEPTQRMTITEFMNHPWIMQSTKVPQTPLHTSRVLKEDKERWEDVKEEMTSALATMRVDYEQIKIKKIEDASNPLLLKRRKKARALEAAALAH
The test system of test [5] is HSP27 Ser82 phosphorylation site. The test is described as follows: Mass spec phosphoproteomic analysis of MAPKAPK2/MK2-dependent phosphorylation. The test is classed as cell-based. Conditions: doxorubicin treated cells. The text has this:
(§1) The present invention is also based in part on the discovery that the peptide sequence proximal to the serine 125 (Ser125) phosphorylation site of MENA and the equivalent serine 144 (Ser144) phosphorylation site of MENA^INV are potent substrates of the MAPKAPK2/MK2 kinase. Replacement of Ser125 in MENA and or Ser144 in MENA^INV with a non-phosphorylable amino acid changes the peptide substrates to effective peptide inhibitors of the MAPKAPK2/MK2 kinase. […] In doxorubicin treated cells the MENA Ser125 phosphorylation site becomes more heavily phosphorylated (˜8× increase) than the HSP27 Ser82 phosphorylation site (˜2.5× increase). The Ser125/Ser144 serine residue was replaced with a non-phosphorylatable glycine residue to convert the MENA/MENA^INV substrate peptides into effective MENA kinase inhibitors.

Test [6] relates to MENA Ser125 phosphorylation site. The test is described as above. The conditions noted are these: doxorubicin treated cells. The test is classed as cell-based.
Excerpt: as §1

We go through six compounds from US11242406B2, “Methods for the treatment of a cancer or fibrotic disorder associated with MENA or MENA(INV) by administering a map kinase inhibitor” (METASTAT, INC., priority 2016, dated 2022).

On to `O=c1cc(N2CCOCC2)oc2c(-c3ccccc3)cccc12` [LY294002, 2-morpholin-4-yl-8-phenylchromen-4-one], for which, in test [1] (10 uM), the “MENA-dependent migration/chemotaxis phenotype (cells migrated through fibronectin coated membrane towards EGF)” value is “significantly reverse”. Besides, the “relative number of cells that invade through Matrigel insert membranes towards EGF” value (“relative number” below) in test [2] (10 uM) is “significantly reduce”. Further, in the test on MVD7-MENA^INV cells, the “MENA-dependent fibronectin fibrillogenesis phenotype compared to the MENA-null control” value is reported as “significantly reduced”. This compound also gave a wound closure in test [3] (10 uM) of 15%.
In the case of `O=C(NOC[C@H](O)CO)c1ccc(F)c(F)c1Nc1ccc(I)cc1F` [PD0325901, N-[(2R)-2,3-dihydroxypropoxy]-3,4-difluoro-2-[(2-fluoro-4-iodophenyl)amino]-benzamide], the “MENA-dependent migration/chemotaxis phenotype (cells migrated through fibronectin coated membrane towards EGF)” value in test [1] (1 uM) is “significantly reverse”. Moreover, the “relative number” value in test [2] (1 uM) is recorded as “significantly reduce”. The “MENA-dependent fibronectin fibrillogenesis phenotype compared to the MENA-null control” value in the test with MVD7-MENA^INV cells is listed as “significantly reduced”. Also, the wound closure in test [3] (1 uM) came out at 15%. In addition, the “level of phosphorylated MENA^INV” value in test [4] (inhibitor at 1 uM) is “significantly reduce”.
In the case of “KKKALHRQLGVAA (MAPKAPK2/MK2 inhibitor derived from HSP25)”, the “MENA-dependent migration/chemotaxis phenotype (cells migrated through fibronectin coated membrane towards EGF)” value in test [1] (100 uM) and in test [1] (300 uM) was “significantly reverse” each time. Further, the “inhibition of MAPKAPK2/MK2” value with MAPKAPK2/MK2 is given as “potent inhibitor”. Besides, the “relative number” value in test [2] (100 uM) and in test [2] (300 uM) was “significantly reduce” each time. In addition, the “MENA-dependent fibronectin fibrillogenesis phenotype compared to the MENA-null control” value with MVD7-MENA^INV cells was “significantly reduced”. The “MENA-dependent fibronectin fibrillogenesis phenotype” value in the test with MVD7-MENA^INV cells (increasing concentrations, 100 and 300 uM, 4 hours) is listed as “Dose-dependent reductions”. The wound closure in test [3] (300 uM) is on record as 15%.
In the case of `CC(C)(C)Cn1c(N)nc2ccc(-c3[nH]c(C(C)(C)C)nc3-c3ccc(F)cc3)nc21.CS(=O)(=O)O` [LY2228820, 5-[2-tert-butyl-4-(4-fluorophenyl)-1H-imidazol-5-yl]-3-(2,2-dimethylpropyl)imidazo[4,5-b]pyridin-2-amine; methanesulfonic acid], the “MENA-dependent migration/chemotaxis phenotype (cells migrated through fibronectin coated membrane towards EGF)” value in test [1] (10 uM) was “significantly reverse”. The “relative number” value in test [2] (10 uM) is “significantly reduce”. The wound closure in test [3] (10 uM) was 20%. Further, the “level of phosphorylated MENA^INV” value in test [4] (inhibitor at 1 uM) is on record as “significantly reduce”.
In the case of `Cc1ccc(-c2ccc3c(ccc4sc5c(c43)NC[C@@H](C)NC5=O)n2)cn1.O` [PF-3644022, (10R)-9,10,11,12-tetrahydro-10-methyl-3-(6-methyl-3-pyridinyl)-8H-[1,4]diazepino[5′,6′:4,5]thieno[3,2-f]quinolin-8-one hydrate], the “MENA-dependent migration/chemotaxis phenotype (cells migrated through fibronectin coated membrane towards EGF)” value in test [1] (10 uM) is given as “significantly reverse”. Besides, the “relative number” value in test [2] (10 uM) is given as “significantly reduce”. Further, the wound closure in test [3] (10 uM) was determined as 10%. Besides, the “level of phosphorylated MENA^INV” value in test [4] (inhibitor at 10 uM) is recorded as “significantly reduce”.
For `COc1cccc2c1C(=O)c1c(O)c3c(c(O)c1C2=O)C[C@@](O)(C(=O)CO)C[C@@H]3O[C@H]1C[C@H](N)[C@H](O)[C@H](C)O1` [doxorubicin], the “increase in phosphorylation of HSP27 Ser82 site” value in test [5] is given as about 2.5 ×. In addition, in test [6], the “increase in phosphorylation of MENA Ser125 site” value is given as about 8 ×.
